Measured values reported in patent US20250154138A1, “Small Molecule IL-17A Modulators” (BeiGene, Ltd., priority 2022, published 2025).

How the values were obtained:
[1] = molecular target: human IL-17A / human IL-17RA (Homo sapiens (Human), UniProt Q16552); experiment: Human IL-17A biochemical assay (HTRF, blocking of IL-17A binding to IL-17RA); conditions: 0.4 nM IL-17A, 0.3 nM IL-17RA, max compound concentration 10 uM
In short: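 Steps: compound dilutions (max 10 uM, 10 points) pre-incubate with 0.4 nM IL-17A for 3 h at RT; 0.3 nM IL-17RA added for 1 h; HTRF antibody pair added for 1 h; fluorescence ratio read and percent inhibition fitted to a four-parameter logistic for IC50.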

[2] = test system: IL-17-induced GROα secretion from HT-29 cells; experiment: GROα release assay in human colorectal adenocarcinoma epithelial cell (HT-29, ELISA); assay type: cell-based; conditions: Homo sapiens, HT-29, 48 h, 10 ng/mL IL-17A, highest concentration 10 μM, read-out: Cellular assay HT29 cell/CXCL1 IC50
In short: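 IC50 values come from four-parameter fits of GROα levels, quantified by ELISA (450 nm, standard curve) in supernatants. Compounds, 4-fold serially diluted from 10 μM, were mixed 15 min with IL-17A (10 ng/mL final) before 48 h incubation with HT-29 cells at 37°C.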

Sequence of human IL-17A / human IL-17RA (Q16552 24-155): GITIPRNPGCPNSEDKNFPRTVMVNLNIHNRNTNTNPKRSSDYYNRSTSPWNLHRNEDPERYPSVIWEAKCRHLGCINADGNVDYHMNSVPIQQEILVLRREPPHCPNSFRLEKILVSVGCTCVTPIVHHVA

SMILES | IC50 [1] | IC50 [2]
CNC(=O)C1(N2CC3(CCC3)CNC2=O)Cc2ccc(NC(=O)[C@@H](NC(=O)c3ccnn3C)C3CCCCC3)cc2C1 (stereo partly drawn) [Example 108, N-((1S)-1-cyclohexyl-2-((2-(methylcarbamoyl)-2-(7-oxo-6,8-diazaspiro[3.5]nonan-6-yl)-2,3-dihydro-1H-inden-5-yl)amino)-2-oxoethyl)-1-methyl-1H-pyrazole-5-carboxamide] | 5.8 nM | 42.3 nM
CNC(=O)C1(N2C[C@@H](C(C)C)NC2=O)Cc2ccc(NC(=O)[C@@H](NC(=O)c3nonc3C)C(C3CC3)C3CC3)cc2C1 (stereo partly drawn) [Example 248, N-((2S)-1,1-dicyclopropyl-3-((2-((R)-4-isopropyl-2-oxoimidazolidin-1-yl)-2-(methylcarbamoyl)-2,3-dihydro-1H-inden-5-yl)amino)-3-oxopropan-2-yl)-4-methyl-1,2,5-oxadiazole-3-carboxamide] | 126 nM | 427 nM
CNC(=O)C1(N2CC3(CCC3)CNC2=O)Cc2ccc(NC(=O)[C@@H](NC(=O)c3ccnn3C)C(C3CC3)C3CC3)cc2C1 (stereo partly drawn) [Example 120, N-((2S)-1,1-dicyclopropyl-3-((2-(methylcarbamoyl)-2-(7-oxo-6,8-diazaspiro[3.5]nonan-6-yl)-2,3-dihydro-1H-inden-5-yl)amino)-3-oxopropan-2-yl)-1-methyl-1H-pyrazole-5-carboxamide] | 19 nM | 72.4 nM
CNC(=O)C1(N2CC(C)NC2=O)Cc2cc3nc([C@@H](NC(=O)c4nonc4C)C4CCCCC4)[nH]c3cc2C1 (stereo partly drawn) [Example 14, N-((1S)-cyclohexyl(6-(4-methyl-2-oxoimidazolidin-1-yl)-6-(methylcarbamoyl)-1,5,6,7-tetrahydroindeno[5,6-d]imidazol-2-yl)methyl)-4-methyl-1,2,5-oxadiazole-3-carboxamide] | 150 nM | 300 nM
CNC(=O)C1(N2C[C@@H](C(C)C)NC2=O)Cc2ccc(NC(=O)C(NC(=O)c3ccnn3C)C3C4CC5CC(C4)CC3C5)cc2C1 (stereo partly drawn) [Example 111, N-(1-((1R,3S,5R,7R)-adamantan-2-yl)-2-((2-((R)-4-isopropyl-2-oxoimidazolidin-1-yl)-2-(methylcarbamoyl)-2,3-dihydro-1H-inden-5-yl)amino)-2-oxoethyl)-1-methyl-1H-pyrazole-5-carboxamide] | 55 nM | 112 nM
Cc1nonc1C(=O)N[C@H](C(=O)Nc1ccc2c(c1)CC(C(=O)Nc1ccccc1C(F)(F)F)(N1C[C@@H](C(C)C)NC1=O)C2)C(C1CC1)C1CC1 (stereo partly drawn) [Example 272, N-((2S)-1,1-dicyclopropyl-3-((2-((R)-4-isopropyl-2-oxoimidazolidin-1-yl)-2-((2-(trifluoromethyl)phenyl)carbamoyl)-2,3-dihydro-1H-inden-5-yl)amino)-3-oxopropan-2-yl)-4-methyl-1,2,5-oxadiazole-3-carboxamide] | 295 nM | 650 nM
CNC(=O)C1(N2C[C@@H](C(C)C)NC2=O)Cc2cc(F)c(NC(=O)[C@@H](NC(=O)c3ccnn3C)C3CCCCC3)cc2C1 (stereo partly drawn) [Example 119, N-((1S)-1-cyclohexyl-2-((6-fluoro-2-((R)-4-isopropyl-2-oxoimidazolidin-1-yl)-2-(methylcarbamoyl)-2,3-dihydro-1H-inden-5-yl)amino)-2-oxoethyl)-1-methyl-1H-pyrazole-5-carboxamide] | 73 nM | 144 nM
CNC(=O)C1(N2CC3(CC3)CNC2=O)Cc2ccc(NC(=O)[C@@H](NC(=O)C(F)(F)c3cccc(C#N)c3)C3CCCCC3)cc2C1 (stereo partly drawn) [Example 158, 5-((S)-2-(2-(3-cyanophenyl)-2,2-difluoroacetamido)-2-cyclohexylacetamido)-N-methyl-2-(6-oxo-5,7-diazaspiro[2.5]octan-5-yl)-2,3-dihydro-1H-indene-2-carboxamide] | 123 nM | 48.5 nM
